Measured values from patent US20160223554A1, “METHODS FOR DIAGNOSIS, PROGNOSIS AND METHODS OF TREATMENT” (priority 2011, published 2016).

Key:
[1] = system: AML blasts; test: SCNP phospho-flow signaling nodes in AML PBMC (Example 2, Study No. 1); format: cell-based, human; settings: for Mean Value of CRs: CR patients; for Mean Value of CRs / Mean Value of NRs: Study No. 1; for Mean Value of NRs: NR patients
Procedure: Frozen cells are thawed in a 37° C. water bath and gently resuspended in the vial and transferred to the 15 mL conical tube. The 15 mL tube is centrifuged at 930 RPM (200×g) for 8 minutes at room temperature. The supernatant is aspirated and the pellet is gently resuspended in 1 mL media A. The cell suspension is filtered through a 70 um cell strainer into a new 15 mL tube. The cell strainer is rinsed with 1 mL media A and another 12 ml of media A into the 15 mL tube. The cells are mixed into an even suspension. A 20 μL aliquot is immediately removed into a 96-well plate containing 180 μL PBS+4% FBS+CD45 Alexa 700+PI to determine cell count and viability post spin. After the determination, the 15 mL tubes are centrifuged at 930 RPM (200×g) for 8 minutes at room temperature. The supernatant is aspirated and the cell pellet is gently resuspended in 4 mL PBS+4 μL Amine Aqua and incubated for 15 min in a 37° C. incubator. 10 mL RPMI+1% FBS is added to the cell suspension and the tube is inverted to mix the cells. The 15 mL tubes are centrifuged at 930 RPM (200×g) for 8 minutes at room temperature. The cells are resuspended in Media A at the desired cell concentration (1.25×10^6/mL). For samples with low numbers of cells (<18.5×10^6), the cells are resuspended in up to 15 mL media. For samples with high numbers of cells (>18.5×10^6), the volume is raised to 10 mL with media A and the desired volume is transferred to a new 15 mL tube, and the cell concentration is adjusted to 1.25×10^6 cells/ml. 1.6 mL of the above cell suspension (concentration at 1.25×10^6 cells/ml) is transferred into wells of a multi-well plate. From this plate, 80 ul is dispensed into each well of a subsequent plate. The plates are covered with a lid (Nunc) and placed in a 37° C. incubator for 2 hours to rest.
A concentration for each stimulant that is five folds more (5×) than the final concentration is prepared using Media A as diluent. 5× stimuli are arrayed into wells of a standard 96 well v-bottom plate that correspond to the wells on the plate with cells to be stimulated.
Adding the stimulant: The cell plate(s) are taken out of the incubator and placed in a 37° C. water bath next to the pipette apparatus. The cell plate is taken from the water bath and gently swirled to resuspend any settled cells. With pipettor, the stimulant is dispensed into the cell plate and vortexed at “7” for 5 seconds. The deep well plate is put back into the water bath.
The plate is covered with foil sealer and incubated in a 37° C. water bath for 10 minutes. The plate is spun for 6 minutes at 2000 rpm at room temperature. The cells are aspirated using a 96 well plate aspirator (VP Scientific). The plate is vortexed to resuspend cell pellets in the residual volume. The pellet is ensured to be dispersed before the Methanol step (see cell permeabilization) or clumping will occur.
Cell Permeabilization: Permeability agent, for example methanol, is added slowly and while the plate is vortexing. To do this, the cell plate is placed on titer plate shaker and made sure it is secure. The plate is set to shake using the highest setting. A pipetter is used to add 0.6 mls of 100% methanol to the plate wells. The plate(s) are put on ice until this step has been completed for all plates. Plates are covered with a foil seal using the plate roller to achieve a tight fit. At this stage the plates can be stored at −80° C.
Cells are thawed if frozen. Cells are pelleted at 2000 rpm 5 minutes. Supernatant is aspirated with vacuum aspirator. Plate is vortexed on a “plate vortex” for 5-10 seconds. Cells are washed with 1 mL FACS buffer. Repeat the spin, aspirate and vortex steps as above. 50 μL of FACS/stain buffer with the desired, previously optimized, antibody cocktail is added to two rows of cells at a time and agitate the plate. The plate is covered and incubated in a shaker for 30 minutes at room temperature (RT). During this incubation, the compensation plate is prepared.

[2] = system: AML blasts; test: SCNP signaling and apoptosis nodes in AML BMMC (Example 4, Study No. 2); format: cell-based, human
[3] = read-out p-Akt, metric TotalPhospho
[4] = Fold metric, all patients, Study No. 2
[5] = Study No.2, patients less than 60 years old
[6] = Study No.2, patients with Secondary AML
[7] = Total Phospho metric, Study No. 1, CRp patient included in NR group
[8] = read-out p-CREB, metric TotalPhospho
[9] = read-out p-Stat3, metric TotalPhospho
[10] = Study No.2, patients with De Novo AML
[11] = TotalPhospho metric, all patients, Study No. 2
[12] = read-out p-Stat1, metric TotalPhospho

SDF -1α
Mean Value of CRs [1, 3]: 0.57
Mean Value of NRs [1, 3]: 1.04

COc1cc([C@@H]2c3cc4c(cc3[C@@H](O[C@@H]3O[C@@H]5CO[C@@H](C)O[C@H]5[C@H](O)[C@H]3O)[C@H]3COC(=O)[C@H]23)OCO4)cc(OC)c1O [Etoposide, reference compound]
Mean Value of CRs, c-PARP [2, 4]: 0.79
Mean Value of NRs, c-PARP [2, 4]: 0.25
Mean Value of CRs, p-Chk2−,c-PARP+ Quad [2, 5]: 21.17
Mean Value of NRs, p-Chk2−,c-PARP+ Quad [2, 5]: 9.58
Mean Value of CRs, p-Chk2+,c-PARP− Quad [2, 6]: 20.98
Mean Value of CRs, p-Chk2−,c-PARP+ Quad [2, 6]: 32.71
Mean Value of NRs, p-Chk2+,c-PARP− Quad [2, 6]: 55.02
Mean Value of NRs, p-Chk2−,c-PARP+ Quad [2, 6]: 13.24

IL-6: cytokine modulator
Mean Value of CRs, p-CREB [1, 7]: 1.58
Mean Value of CRs, p-Stat3 [1, 7]: 1.08
Mean Value of NRs, p-CREB [1, 7]: 2.44
Mean Value of NRs, p-Stat3 [1, 7]: 1.81
Mean Value of CRs [1, 8]: 1.70
Mean Value of NRs [1, 8]: 2.43
Mean Value of CRs [1, 9]: 1.08
Mean Value of NRs [1, 9]: 1.84
Mean Value of CRs, p-Stat1 [2, 4]: −0.01
Mean Value of CRs, p-Stat3 [2, 4]: 0.12
Mean Value of CRs, p-Stat5 [2, 4]: 0.13
Mean Value of NRs, p-Stat1 [2, 4]: 0.26
Mean Value of NRs, p-Stat3 [2, 4]: 1.09
Mean Value of NRs, p-Stat5 [2, 4]: 0.55
Mean Value of CRs, p-Stat1 Fold [2, 5]: −0.02
Mean Value of CRs, p-Stat3 Fold [2, 5]: 0.13
Mean Value of CRs, p-Stat3 TotalPhospho [2, 5]: 1.77
Mean Value of CRs, p-Stat5 Fold [2, 5]: 0.11
Mean Value of NRs, p-Stat1 Fold [2, 5]: 0.3
Mean Value of NRs, p-Stat3 Fold [2, 5]: 1.67
Mean Value of NRs, p-Stat3 TotalPhospho [2, 5]: 4.10
Mean Value of NRs, p-Stat5 Fold [2, 5]: 0.58
Mean Value of CRs, p-Stat1 Fold [2, 10]: 0.00
Mean Value of CRs, p-Stat1 TotalPhospho [2, 10]: 1.06
Mean Value of CRs, p-Stat3 TotalPhospho [2, 10]: 1.7
Mean Value of CRs, p-Stat5 Fold [2, 10]: 0.12
Mean Value of NRs, p-Stat1 Fold [2, 10]: 0.19
Mean Value of NRs, p-Stat1 TotalPhospho [2, 10]: 1.67
Mean Value of NRs, p-Stat3 TotalPhospho [2, 10]: 3.22
Mean Value of NRs, p-Stat5 Fold [2, 10]: 0.47
Mean Value of CRs, p-Stat3 [2, 11]: 1.76
Mean Value of NRs, p-Stat3 [2, 11]: 2.98

CN[C@@H]1C[C@H]2O[C@@](C)([C@@H]1OC)n1c3ccccc3c3c4c(c5c6ccccc6n2c5c31)C(=O)NC4 [Stautospotine]
Mean Value of CRs, c-PARP Fold [2, 5]: 3.47
Mean Value of NRs, c-PARP Fold [2, 5]: 7.06

EPO
Mean Value of CRs, p-Stat1 [1, 7]: 0.17
Mean Value of CRs, p-Stat3 [1, 7]: 0.64
Mean Value of NRs, p-Stat1 [1, 7]: 0.42
Mean Value of NRs, p-Stat3 [1, 7]: 1.23
Mean Value of CRs [1, 12]: 0.20
Mean Value of NRs [1, 12]: 0.42
Mean Value of CRs [1, 9]: 0.72
Mean Value of NRs [1, 9]: 1.23

IL-l0
Mean Value of CRs, p-Stat1 [1, 7]: 0.17
Mean Value of NRs, p-Stat1 [1, 7]: 0.47
